Source: US11071769B2, “Lipo-glycopeptide cleavable derivatives and uses thereof” (Insmed Incorporated, priority 2017, dated 2021)
Values after ≈ are worked out from the molar mass of the structure shown.

How the values were obtained:
[1] = tested on: quality control strain ATCC 29213 (MSSA); test: MIC, CLSI-guided broth susceptibility testing, MSSA 29213; format: cell-based, Staphylococcus aureus; settings: for MIC Values, MSSA 29213: ATCC 29213 (MSSA); for MIC: Staphylococcus aureus, read-out: MIC Values, MSSA 29213
Experimental: (§1) Compounds of the invention were evaluated for their ability to inhibit bacterial growth in two MRS A strains—MRS A 1556 and MRS A 29213. Table 2 provides MIC concentrations for metabolites of the ester and amide compounds, RV80 (metabolite of RV65 ester) and RV82 (metabolite of RV62 amide). MIC values for vancomycin and telavancin are also provided.
(§2) MIC Testing: Glycopeptide compounds were dissolved in 100% DMSO. In vitro activities were determined using CLSI-guided broth susceptibility testing to measure drug minimum inhibitory concentrations (MICs) of the compounds against the quality control strain ATCC 29213 (MSSA) and the MRS A isolate ATCC BAA-1556.

[2] = tested on: MRSA isolate ATCC BAA-1556; test: MIC, CLSI-guided broth susceptibility testing, MRSA 1556; format: cell-based, Staphylococcus aureus; settings: for MIC Values, MRSA 1556: MRSA isolate ATCC BAA-1556; for MIC: Staphylococcus aureus, read-out: MIC Values, MRSA 1556
Experimental: as §1, §2

[3] = Metabolism (hydrolysis) in rat plasma; format: in vitro ADME; settings: 37° C.; for degradant detected in plasma: 50 μg/mL
Experimental: RV62 and RV65 were dissolved in 100% DMSO. Stock solutions were diluted using rat plasma to contain less than 1% organic solvent with a final drug concentration of 50 μg/mL. Samples were briefly vortexed and then incubated in a shaker set to 37° C. and 300 rpm. Aliquots were removed at specified time points and store at −80° C. until extraction and analysis. Samples were extracted using a solution of 10% TCA and analyzed using LCMS.

[4] = Degradation (hydrolysis) in Tris buffer by HPLC; format: physicochemical; settings: 1 mM Tris buffer pH 6.99, 40° C., 72 h
Experimental: RV62 and RV65 degradation was determined according to the following procedures.
Compounds were dissolved and diluted with 1 mM Tris buffer (pH 6.99) to achieve a concentration of 54 μg/mL (stock solution). 0.5 mL of stock solution was further diluted with acetonitrile to a total volume of 10 mL. The stock solution was incubated at 40° C., with samples withdrawn at 3, 6, 24, and 72 h and tested by HPLC.
HPLC method: Samples were injected onto a 100×2.1 mm Waters Cortecs HILIC with a particle size of 1.6 μm. The mobile phase consisted of water (0.1% formic acid) and acetonitrile (0.1% formic acid). The analytic method utilized a gradient from 10% water (0.1% formic acid)/90% acetonitrile (0.1% formic acid) to 70% water (0.1% formic acid)/30% acetonitrile (0.1% formic acid). The HPLC instrument was equipped with a UV detector (280 nm). Compounds were identified by mass.

SMILES | MIC Values, MSSA 29213 [1] | MIC Values, MRSA 1556 [2] | also measured
CCCCCCCCCC(=O)OCCNC1(C)CC(OC2C(Oc3c4cc5cc3Oc3ccc(cc3Cl)C(O)C3NC(=O)C(NC(=O)C5NC(=O)C(CC(N)=O)NC(=O)C(NC(=O)C(CC(C)C)NC)C(O)c5ccc(c(Cl)c5)O4)c4ccc(O)c(c4)-c4c(O)cc(O)cc4C(C(=O)O)NC3=O)OC(CO)C(O)C2O)OC(C)C1O (centres unmarked) [RV54] | 0.146 µg/mL (≈ 0.0886 µM) | 0.167 µg/mL (≈ 0.101 µM) | –
CCCCCCCCCC(=O)NCCNC1(C)CC(OC2C(Oc3c4cc5cc3Oc3ccc(cc3Cl)C(O)C3NC(=O)C(NC(=O)C5NC(=O)C(CC(N)=O)NC(=O)C(NC(=O)C(CC(C)C)NC)C(O)c5ccc(c(Cl)c5)O4)c4ccc(O)c(c4)-c4c(O)cc(O)cc4C(C(=O)O)NC3=O)OC(CO)C(O)C2O)OC(C)C1O (centres unmarked) [RV56] | 0.063 µg/mL (≈ 0.0383 µM) | 0.063 µg/mL (≈ 0.0383 µM) | –
CCCCCCCCCCCC(=O)NCCNC1(C)CC(OC2C(Oc3c4cc5cc3Oc3ccc(cc3Cl)C(O)C3NC(=O)C(NC(=O)C5NC(=O)C(CC(N)=O)NC(=O)C(NC(=O)C(CC(C)C)NC)C(O)c5ccc(c(Cl)c5)O4)c4ccc(O)c(c4)-c4c(O)cc(O)cc4C(C(=O)O)NC3=O)OC(CO)C(O)C2O)OC(C)C1O (centres unmarked) [RV62] | 0.023 µg/mL (≈ 0.0137 µM) | 0.023 µg/mL (≈ 0.0137 µM) | fold more efficacious than RV65 (MIC) ([2]; compared with RV65, the ester with the lowest measured MIC, Table 1, both strains): about 3 ×; degradant detected in plasma ([3]; 24 h incubation): 6%
CCCCCCCCCCCC(=O)OCCNC1(C)CC(OC2C(Oc3c4cc5cc3Oc3ccc(cc3Cl)C(O)C3NC(=O)C(NC(=O)C5NC(=O)C(CC(N)=O)NC(=O)C(NC(=O)C(CC(C)C)NC)C(O)c5ccc(c(Cl)c5)O4)c4ccc(O)c(c4)-c4c(O)cc(O)cc4C(C(=O)O)NC3=O)OC(CO)C(O)C2O)OC(C)C1O (centres unmarked) [RV65] | 0.063 µg/mL (≈ 0.0376 µM) | 0.094 µg/mL (≈ 0.0561 µM) | peak area for the cleaved glycopeptide, of the total [4]: about 42%; degradant detected in plasma ([3]; 6 h incubation): ~90%; metabolism in plasma compared to RV62 ([3]; over 24 h): metabolized faster
CNC(CC(C)C)C(=O)NC1C(=O)NC(CC(N)=O)C(=O)NC2C(=O)NC3C(=O)NC(C(=O)NC(C(=O)O)c4cc(O)cc(O)c4-c4cc3ccc4O)C(O)c3ccc(c(Cl)c3)Oc3cc2cc(c3OC2OC(CO)C(O)C(O)C2OC2CC(C)(NCCO)C(O)C(C)O2)Oc2ccc(cc2Cl)C1O (centres unmarked) [RV80] | 1 µg/mL (≈ 0.67 µM) | 1 µg/mL (≈ 0.67 µM) | –
CN[C@H](CC(C)C)C(=O)N[C@H]1C(=O)N[C@@H](CC(N)=O)C(=O)N[C@H]2C(=O)N[C@H]3C(=O)N[C@H](C(=O)N[C@@H](C(=O)O)c4cc(O)cc(O)c4-c4cc3ccc4O)[C@H](O)c3ccc(c(Cl)c3)Oc3cc2cc(c3O[C@@H]2O[C@H](CO)[C@@H](O)[C@H](O)[C@H]2O[C@H]2C[C@](C)(NCCN)[C@H](O)[C@H](C)O2)Oc2ccc(cc2Cl)[C@H]1O [RV82] | – | – | MIC [1]: 3 µg/mL (≈ 2.01 µM); MIC [2]: 3 µg/mL (≈ 2.01 µM)
CCCCCCCCCCCCCCCC(=O)OCCNC1(C)CC(OC2C(Oc3c4cc5cc3Oc3ccc(cc3Cl)C(O)C3NC(=O)C(NC(=O)C5NC(=O)C(CC(N)=O)NC(=O)C(NC(=O)C(CC(C)C)NC)C(O)c5ccc(c(Cl)c5)O4)c4ccc(O)c(c4)-c4c(O)cc(O)cc4C(C(=O)O)NC3=O)OC(CO)C(O)C2O)OC(C)C1O (centres unmarked) [RV89] | 0.500 µg/mL (≈ 0.289 µM) | 1.000 µg/mL (≈ 0.577 µM) | –
CCCCCCCC(=O)OCCNC1(C)CC(OC2C(Oc3c4cc5cc3Oc3ccc(cc3Cl)C(O)C3NC(=O)C(NC(=O)C5NC(=O)C(CC(N)=O)NC(=O)C(NC(=O)C(CC(C)C)NC)C(O)c5ccc(c(Cl)c5)O4)c4ccc(O)c(c4)-c4c(O)cc(O)cc4C(C(=O)O)NC3=O)OC(CO)C(O)C2O)OC(C)C1O (centres unmarked) [RV90] | 0.250 µg/mL (≈ 0.154 µM) | 0.250 µg/mL (≈ 0.154 µM) | –
CCCCCCCCCCCCCCCC(=O)NCCNC1(C)CC(OC2C(Oc3c4cc5cc3Oc3ccc(cc3Cl)C(O)C3NC(=O)C(NC(=O)C5NC(=O)C(CC(N)=O)NC(=O)C(NC(=O)C(CC(C)C)NC)C(O)c5ccc(c(Cl)c5)O4)c4ccc(O)c(c4)-c4c(O)cc(O)cc4C(C(=O)O)NC3=O)OC(CO)C(O)C2O)OC(C)C1O (centres unmarked) [RV91] | 0.188 µg/mL (≈ 0.109 µM) | 0.250 µg/mL (≈ 0.144 µM) | –
CCCCCCCC(=O)NCCNC1(C)CC(OC2C(Oc3c4cc5cc3Oc3ccc(cc3Cl)C(O)C3NC(=O)C(NC(=O)C5NC(=O)C(CC(N)=O)NC(=O)C(NC(=O)C(CC(C)C)NC)C(O)c5ccc(c(Cl)c5)O4)c4ccc(O)c(c4)-c4c(O)cc(O)cc4C(C(=O)O)NC3=O)OC(CO)C(O)C2O)OC(C)C1O (centres unmarked) [RV93] | 0.125 µg/mL (≈ 0.0772 µM) | 0.125 µg/mL (≈ 0.0772 µM) | –
CCCCCCCCCCCCNC(=O)CNC1(C)CC(OC2C(Oc3c4cc5cc3Oc3ccc(cc3Cl)C(O)C3NC(=O)C(NC(=O)C5NC(=O)C(CC(N)=O)NC(=O)C(NC(=O)C(CC(C)C)NC)C(O)c5ccc(c(Cl)c5)O4)c4ccc(O)c(c4)-c4c(O)cc(O)cc4C(C(=O)O)NC3=O)OC(CO)C(O)C2O)OC(C)C1O (centres unmarked) [RV95] | 0.031 µg/mL (≈ 0.0185 µM) | 0.031 µg/mL (≈ 0.0185 µM) | –
CCCCCCCCCCNCCN[C@@]1(C)C[C@H](O[C@H]2[C@H](Oc3c4cc5cc3Oc3ccc(cc3Cl)[C@@H](O)[C@@H](NC(=O)[C@@H](CC(C)C)NC)C(=O)N[C@@H](CC(N)=O)C(=O)N[C@H]5C(=O)N[C@H]3C(=O)N[C@H](C(=O)N[C@H](C(=O)O)c5cc(O)c(CNCP(=O)(O)O)c(O)c5-c5cc3ccc5O)[C@H](O)c3ccc(c(Cl)c3)O4)O[C@H](CO)[C@@H](O)[C@@H]2O)O[C@@H](C)[C@H]1O [Telavancin, telavancin, reference compound] | – | – | MIC [1]: 0.063 µg/mL (≈ 0.0359 µM); MIC [2]: 0.063 µg/mL (≈ 0.0359 µM)
